Results from US12440467B2, “Treatment and prevention of infections using vegetable oil-derived polyols” (priority 2021, dated 2025).

Molecular target: T1, CD4-gp120 complex (Human immunodeficiency virus type 1 group M subtype B, UniProt P04578)
T1 construct: recombinant gp120 (5 μg, Sigma-Aldrich); purchased Sigma-Aldrich (gp120); R&D Systems (CD4)
Test: Immunoprecipitation / Western blot of CD4-gp120 complex formation
Assay type: binding, HIV
Conditions: increasing concentration, Polyol:CD4-gp120 1:1000, 1:100, 1:10; polyol alone
Description: Immunoprecipitation studies conducted in the presence or absence of the linseed oil-derived polyol were performed to evaluate the impact of the polyol on the formation of the CD4-gp120 complex. A commercially available immunoprecipitation kit consisting of protein G-coated agarose beads (Invitrogen) was used, and immunoprecipitations were conducted according to the manufacturer's protocol. Briefly, the gp120 antibody (5 μg, Sigma-Aldrich) was bound to the protein G-coated agarose beads (50 μl) by placing the antibody and protein G agarose beads in 1.5 ml Eppendorf centrifuge tubes and incubated at room temperature for 10 minutes with rotation. The tubes were placed on the magnet (Life Technologies) and the supernatant was removed. […] The samples were heated for 5 minutes at 95° C., then placed on the magnet, the supernatants were collected and analyzed via western blot. […]
A standard western blot technique was used to evaluate the impact of the polyol on CD4-gp120 complex formation. […] Protein bands on the membrane were detected by chemiluminescence (Femto, ThermoFisher) and imaged on X-ray film (ThermoFisher). The blotted protein was quantified using the Image J software to measure the density, and the values were normalized to an untreated sample.
The inhibitory effect of the linseed oil-derived polyol on the formation of CD4 and […] complex was evaluated with immunoprecipitation (IP). […]

SMILES: CCC(O)C(O)CC(O)C(O)CC=CCCCCCCCC(=O)OC (stereo not shown) [linseed oil-derived polyol]
- effect on CD4-gp120 complex formation (gp120 bands): reduced the CD4-gp120 complex formation
